Test results taken from patent publication US4347252A, “Rodenticidal 1-(3,5-bistrifluoromethylphenyl)-3-(4-t-butylpiperidino)prop-1-yne” (priority 1980, dated 1982).

Columns and labels:
[1] = system: mice (laboratory strain); assay: Acute Oral Toxicity in Mice (Laboratory Strain); type: in vivo
Protocol: Acute Oral Toxicity in Mice (Laboratory Strain)
Groups of mice were dosed orally with graded doses of the test compound in aqueous suspension and observed until there had been no deaths for at least three days. The acute oral LD50, that is to say the dose in mg/kg animal body weight necessary to kill 50% of the mice, was determined from the numbers of animals for each dose which died during the observation period by reference to published tables.

[2] = system: Wild Rats (Rattus norvegicus); assay: Laboratory Simulated Field Test on Wild Rats in confinement; type: in vivo; conditions: for Total bait eaten: poisoned + plain
Excerpt: Laboratory Simulated Field Test on Wild Rats (Rattus norvegicus) in confinement
One male and nine female rats were given the choice of two feeding points, at each of which the animals were offered a bait consisting of medium oatmeal (95%) and wholemeal flour (5%) (plain bait). After a period of six days during which the plain bait was offered at both feeding points, the plain bait was replaced at one of the feeding points by a bait of the same composition in which 0.1% by weight of the test compound used in Test 2 hereinbefore described had been incorporated (poisoned bait), while the plain bait continued to be offered at the other feeding point.

CC(C)(C)C1CCN(CC#Cc2cc(C(F)(F)F)cc(C(F)(F)F)c2)CC1.Cl [1-(3,5-bistrifluoromethylphenyl)-3-(4-tert-butylpiperidino)prop-1-yne hydrochloride]
LD50 (acute oral) ([1]; aqueous suspension): 23 mg/kg animal body weight | Observations: signs of poisoning ([1]; prior to death / after dosing): no marked signs | Quantity of bait eaten, Feeding Point A, Poisoned bait ([2]; Day 1, 0.1% by weight in bait): 99.7 g | Quantity of bait eaten, Feeding Point B, Plain bait ([2]; Day 1 of offering poisoned bait at Point A): 80.1 g | Quantity of bait eaten, Feeding Point A, Poisoned bait ([2]; Day 2): 95.2 g | Quantity of bait eaten, Feeding Point B, Plain bait ([2]; Day 2 of offering poisoned bait at Point A): 65.9 g | Quantity of bait eaten, Feeding Point A, Poisoned bait ([2]; Day 3): 19.8 g | Quantity of bait eaten, Feeding Point B, Plain bait ([2]; Day 3 of offering poisoned bait at Point A): 67.4 g | Cumulative mortality ([2]; Day 4): 30% | Quantity of bait eaten, Feeding Point A, Poisoned bait ([2]; Day 4): 5.1 g | Quantity of bait eaten, Feeding Point B, Plain bait ([2]; Day 4 of offering poisoned bait at Point A): 38.1 g | Quantity of bait eaten, Feeding Point A, Poisoned bait ([2]; Day 5): 1.8 g | Quantity of bait eaten, Feeding Point B, Plain bait ([2]; Day 5 of offering poisoned bait at Point A): 27.7 g | Cumulative mortality ([2]; Day 6): 60% | Quantity of bait eaten, Feeding Point B, Plain bait ([2]; Day 6 of offering poisoned bait at Point A): 19.3 g | Cumulative mortality ([2]; Day 7): 70% | Quantity of bait eaten, Feeding Point B, Plain bait ([2]; Day 7 of offering poisoned bait at Point A): 4.0 g | Cumulative mortality ([2]; Day 8): 80% | Quantity of bait eaten, Feeding Point B, Plain bait ([2]; Day 8 of offering poisoned bait at Point A): 6.5 g | Cumulative mortality ([2]; Day 9): 90% | Quantity of bait eaten, Feeding Point A, Poisoned bait ([2]; Day 9): 1.3 g | Quantity of bait eaten, Feeding Point B, Plain bait ([2]; Day 9 of offering poisoned bait at Point A): 3.7 g | Quantity of bait eaten, Feeding Point A, Poisoned bait ([2]; Day 11): 0.7 g | Quantity of bait eaten, Feeding Point B, Plain bait ([2]; Day 11 of offering poisoned bait at Point A): 0.7 g | Cumulative mortality ([2]; Day 12): 100% | Total bait eaten ([2]; Day 1): 179.8 g | Total bait eaten ([2]; Day 2): 161.1 g | Total bait eaten ([2]; Day 3): 97.2 g | Total bait eaten ([2]; Day 4): 43.2 g | Total bait eaten ([2]; Day 5): 29.5 g | Total bait eaten ([2]; Day 6): 19.3 g | Total bait eaten ([2]; Day 7): 4.0 g | Total bait eaten ([2]; Day 8): 6.5 g | Total bait eaten ([2]; Day 9): 5.0 g | Total bait eaten ([2]; Day 11): 1.4 g
